Experimental data as given in publication PMC8440459 (Neurotoxicology, 2021).
“Also recorded” adds a separate entry of the source.

Key:
[1] = target: T1, equine liver GST (Equus caballus, UniProt A0A9L0RPC4); assay: Time dependency of equine liver GST inhibition; format: biochemical; settings: for Time dependency of inhibition of GST activity: aliquots after 1, 2 and 4 hours of incubation; for GST activity after 24-hour incubation: 100μM inhibitor, compared with 4 hours
[2] = target: T1, equine liver GST; assay: Reversibility of equine liver GST inhibition; format: biochemical; settings: for Reversibility of inhibition of GST activity: 100μM inhibitor, with or without size exclusion column; for GST activity after application to Bio-Spin 6 Tris Columns / Inhibition of GST after incubation with known reversible inhibitor: 500μM, data not shown; for GST activity after application to Bio-Spin 6 Tris Columns: after column; for Inhibition of GST after incubation with known reversible inhibitor: before column
[3] = target: GST isolated from N27 dopaminergic cells (Rattus norvegicus, UniProt P04906); assay: CDNB assay of GST isolated from N27 cells; format: biochemical
Chain of GST isolated from N27 dopaminergic cells (P04906 whole entry): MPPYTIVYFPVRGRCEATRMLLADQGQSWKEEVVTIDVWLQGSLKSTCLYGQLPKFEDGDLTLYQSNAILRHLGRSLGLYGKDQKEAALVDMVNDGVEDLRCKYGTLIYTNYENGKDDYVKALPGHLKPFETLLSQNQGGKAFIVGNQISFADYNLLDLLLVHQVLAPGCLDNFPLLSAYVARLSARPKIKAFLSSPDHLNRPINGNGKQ

[4] = target: T1, equine liver GST; format: biochemical; settings: 4 hours at 37°C
[5] = test system: dopaminergic cells; settings: ref Schamp and Doorn, 2017; cited from earlier work
[6] = target: T1, equine liver GST; assay: Protection of GST activity from DOPAL, DA or DOPAC; format: biochemical; settings: 1mM protectant, 100μM DA
[7] = target: bovine serum albumin (BSA) (Bos taurus, UniProt P02769); assay: Nitro blue tetrazolium staining of BSA modified by DOPAL; settings: 0.5mg/mL BSA, 4 hours at 37°C, L-cysteine effect at 1mM
Chain of bovine serum albumin (BSA) (P02769 25-607): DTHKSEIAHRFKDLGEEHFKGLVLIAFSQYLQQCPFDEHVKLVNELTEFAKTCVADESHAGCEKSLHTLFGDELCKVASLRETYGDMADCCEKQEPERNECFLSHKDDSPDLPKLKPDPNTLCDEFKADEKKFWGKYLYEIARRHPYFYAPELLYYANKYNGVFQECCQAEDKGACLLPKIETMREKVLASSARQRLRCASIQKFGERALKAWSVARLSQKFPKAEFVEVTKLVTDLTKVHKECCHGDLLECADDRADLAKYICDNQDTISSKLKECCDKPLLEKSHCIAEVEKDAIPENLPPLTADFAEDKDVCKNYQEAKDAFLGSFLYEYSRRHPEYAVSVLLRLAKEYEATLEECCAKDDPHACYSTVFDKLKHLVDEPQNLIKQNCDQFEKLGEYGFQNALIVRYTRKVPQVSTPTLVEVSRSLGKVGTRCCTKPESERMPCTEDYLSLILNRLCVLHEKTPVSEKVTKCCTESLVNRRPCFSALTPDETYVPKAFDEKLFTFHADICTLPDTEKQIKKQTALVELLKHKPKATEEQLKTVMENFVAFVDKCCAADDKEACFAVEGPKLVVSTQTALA

[8] = target: T1, equine liver GST; assay: Nitro blue tetrazolium staining of equine liver GST; settings: 1mM protectant

For `O=C(O)Cc1ccc(O)c(O)c1` [DOPAC, 3,4-dihydroxyphenylacetic acid], the “Time dependency of inhibition of GST activity” value [1] was “time dependent”, the “Reversibility of inhibition of GST activity” value [2] was “irreversible” and the IC50 [3] was 260 µM.

With `O=CCc1ccc(O)c(O)c1` [DOPAL, 3,4-dihydroxyphenylacetaldehyde] the “GST activity after 24-hour incubation” value [1] was “almost completely nulls enzyme activity”, the “Time dependency of inhibition of GST activity” value [1] was “time dependent” and the “Reversibility of inhibition of GST activity” value [2] was “irreversible”. For the same compound, the IC50 [3] was 31.5 µM, the “Concentration giving significant inhibition of commercially available GST” value [4] was 5 µM and the “Concentration toxic to dopaminergic cells” value [5] was 7 µM.

With `O=C(O)/C=C/c1ccc(O)c(O)c1` [caffeic acid] the “GST activity after application to Bio-Spin 6 Tris Columns” value [2] was “regained the full value of its original activity” and the “Inhibition of GST after incubation with known reversible inhibitor” value [2] was “significant inhibition”.

For `NCCc1ccc(O)c(O)c1` [DA, dopamine], the “GST activity after 24-hour incubation” value [1] was “almost completely nulls enzyme activity”, the “Time dependency of inhibition of GST activity” value [1] was “time dependent” and the “Reversibility of inhibition of GST activity” value [2] was “irreversible”. For the same compound, the IC50 [3] was 82.3 µM.

With `CCCCCCSC[C@H](NC(=O)CC[C@H](N)C(=O)O)C(=O)NCC(=O)O` [S-hexylglutathione] the “GST activity after application to Bio-Spin 6 Tris Columns” value [2] was “regained the full value of its original activity” and the “Inhibition of GST after incubation with known reversible inhibitor” value [2] was “significant inhibition”.

In the case of `NCCC(=O)N[C@@H](Cc1cnc[nH]1)C(=O)O` [Carnosine, carnosine], the “Protection of GST activity against inhibition by DA” value [6] is reported as “significant protection; also recorded: partial activity retention”, the “Reduction of NBT staining of BSA modified by 200μM DOPAL” value [7] is reported as “did not significantly reduce protein modification” and the “Protection against modification of equine liver GST by 100 μM DOPAL (NBT stain)” value [8] is reported as “moderately protective”.

With `N[C@@H](CS)C(=O)O` [L-cysteine] the “Reduction of NBT staining of BSA modified by 200μM DOPAL” value [7] was “significantly reduced NBT staining”.
